The text below walks through data of PMC11011439, “Influence of Molecular Design on the Tumor Targeting and Biodistribution of PSMA-Binding Tracers Labeled with Technetium-99m” (International Journal of Molecular Sciences, 2024).

The conditions of data set [1]: of the [99mTc]Tc-labeled ligand; cited from earlier work.
The target in another data set is T1, PSMA (Homo sapiens, UniProt Q04609).
T1 construct: expressed in transfected cells; host or cells: PC3-pip cells (from Prof. Martin G. Pomper, Johns Hopkins University)
T1 sequence (Q04609 whole entry): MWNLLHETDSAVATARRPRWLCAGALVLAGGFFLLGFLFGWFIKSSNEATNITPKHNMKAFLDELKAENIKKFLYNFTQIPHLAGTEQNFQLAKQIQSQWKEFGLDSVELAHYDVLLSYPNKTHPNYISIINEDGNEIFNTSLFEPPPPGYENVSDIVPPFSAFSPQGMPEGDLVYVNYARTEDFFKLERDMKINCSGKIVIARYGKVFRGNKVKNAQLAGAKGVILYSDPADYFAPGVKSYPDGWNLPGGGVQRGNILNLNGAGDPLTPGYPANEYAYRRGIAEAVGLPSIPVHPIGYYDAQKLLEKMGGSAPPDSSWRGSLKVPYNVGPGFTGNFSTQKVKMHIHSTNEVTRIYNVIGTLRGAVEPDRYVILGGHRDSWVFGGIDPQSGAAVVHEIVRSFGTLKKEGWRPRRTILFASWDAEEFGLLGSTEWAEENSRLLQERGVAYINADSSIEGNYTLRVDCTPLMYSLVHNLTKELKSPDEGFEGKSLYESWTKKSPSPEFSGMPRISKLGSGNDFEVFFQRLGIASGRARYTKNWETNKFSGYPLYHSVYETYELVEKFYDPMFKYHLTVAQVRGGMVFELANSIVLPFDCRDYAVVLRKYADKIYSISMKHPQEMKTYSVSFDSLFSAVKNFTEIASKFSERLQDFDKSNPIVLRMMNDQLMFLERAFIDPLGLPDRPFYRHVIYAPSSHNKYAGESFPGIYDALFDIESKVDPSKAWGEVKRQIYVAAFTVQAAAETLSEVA
Kind of data set: Real-time binding kinetics on living PC3-pip cells (LigandTracer Yellow). To be noted: 5 nM tracer, 1:2 interaction model; for Kd: read-out: KD1. As to the method:
The binding kinetics of [^99mTc]Tc-labeled BQ0411, BQ0412, and BQ0413 were measured in real time using LigandTracer Yellow Instruments (Ridgeview Instruments AB, Uppsala, Sweden) on PC3-pip cells, as described earlier. The activity binding was recorded at 5 nM on the radiolabeled tracers for 150 min. After measuring the binding kinetics, the medium containing the labeled tracer was replaced with fresh medium, and the dissociation was monitored over 7 h. […]

Data set [2] has as its system PSMA-expressing prostate cancer xenografts (PC3-pip). Kind of data set: Biodistribution and tumor targeting in PC3-pip tumor-bearing mice. The data set is classed as in vivo, BALB/c nu/nu mice. To be noted: 3 h pi. As to the method: PSMA-expressing prostate cancer xenografts were implanted in BALB/c nu/nu mice by subcutaneous injection of PC3-pip cell suspension in PBS (10^7 cells/animal in 100 µL). The average tumor weight was 0.3 ± 0.2 g at the time of the experiment. Four mice per data point were used. Mice were intravenously injected with 5 nmol of the radiotracer (60 kBq, the mass of the injected compound was adjusted with an unlabeled tracer). The mice were euthanized 3 h pi, and the samples were treated as described above.

A short description of data set [3]: Biodistribution in NMRI mice. The data set is classed as in vivo. As to conditions: for activity in carcass / activity in intestines with content / uptake in blood / uptake in kidney / uptake in liver / uptake in lung / uptake in salivary glands / uptake in spleen / uptake in stomach: 40 pmol/mouse iv. The protocol: Four NMRI mice were intravenously injected with 40 pmol of the radiotracer (60 kBq, the mass of the injected compound was adjusted with an unlabeled tracer). The mice were euthanized with a lethal intraperitoneal injection of ketamine/xylazine, followed by exsanguination at 3 and 24 h post-injection (pi). The organs of interest were collected, weighed, and measured for their activity content using a gamma counter. The uptake activity in organs was calculated as the percentage of injected activity per gram (%IA/g) for the blood, salivary glands, lungs, liver, spleen, stomach, and kidneys and as %IA for the remaining carcass and the rest of the intestines with content.

Data set [4] can be described thus: Octanol/water distribution coefficient (LogD). The data set is classed as physicochemical. As to conditions: n-octanol / Milli-Q water. As to the method: The LogD was determined experimentally based on the procedure described earlier. Briefly, the radiolabeled compound of interest was added to a LoBind Eppendorf tube (Eppendorf, Hamburg, Germany) containing Milli-Q water (500 μL) and n-octanol (500 μL), and the mixture was vortexed and centrifuged. Thereafter, three fractions from each phase were collected and the activity was measured using a gamma counter. The LogD was calculated by dividing the average activity measured in octanol by the average activity measured in water.

SMILES strings stand for the structures.

As for `CC(=O)N[C@@H](CCCCNC(=O)CNC(=O)C(CCC(=O)O)NC(=O)C(CCC(=O)O)NC(=O)C(CCC(=O)O)NC(=O)CS)C(=O)NCCCCCCCC(=O)N[C@@H](Cc1ccc(O)cc1)C(=O)N[C@@H](Cc1ccc2ccccc2c1)C(=O)NCCCC[C@H](NC(=O)N[C@@H](CCC(=O)O)C(=O)O)C(=O)O` (stereo partly drawn) [BQ0413], the overall charge in data set [1] is listed as −4.
On to `CC(=O)N[C@@H](CCCCNC(=O)CNC(=O)C(CCC(=O)O)[N]1C(=O)C(CCC(=O)O)[N]2C(=O)C(CCC(=O)O)[N]3C(=O)C[S][TcH]312=[O])C(=O)NCCCCCCCC(=O)N[C@@H](Cc1ccc(O)cc1)C(=O)N[C@@H](Cc1ccc2ccccc2c1)C(=O)NCCCC[C@H](NC(=O)N[C@@H](CCC(=O)O)C(=O)O)C(=O)O` (stereo partly drawn) [[^99mTc]Tc-BQ0413], for which, at PSMA, the Kd stood at 0.089 nM.
Take `CC(=O)N[C@@H](CCCCNC(=O)CNC(=O)CNC(=O)CNC(=O)CS)C(=O)NCCCCCCCC(=O)N[C@@H](Cc1ccc(O)cc1)C(=O)N[C@@H](Cc1ccc2ccccc2c1)C(=O)NCCCC[C@H](NC(=O)N[C@@H](CCC(=O)O)C(=O)O)C(=O)O` [BQ0412]: in data set [1], the overall charge is on record as −1.
Consider `CC(=O)N[C@@H](CCCCNC(=O)CNC(=O)CNC(=O)CNC(=O)CNC(=O)CS)C(=O)NCCCCCCCC(=O)N[C@@H](Cc1ccc(O)cc1)C(=O)N[C@@H](Cc1ccc2ccccc2c1)C(=O)NCCCC[C@H](NC(=O)N[C@@H](CCC(=O)O)C(=O)O)C(=O)O` [BQ0411], for which, in data set [1], the overall charge is reported as −1.
For the molecule `CC(=O)NC(CCCCNC(=O)CNC(=O)C[N]1C(=O)C[N]2C(=O)C[N]3C(=O)C[S][TcH]132=[O])C(=O)NCCCCCCCC(=O)NC(Cc1ccc(O)cc1)C(=O)NC(Cc1ccc2ccccc2c1)C(=O)NCCCCC(NC(=O)NC(CCC(=O)O)C(=O)O)C(=O)O` (stereo not drawn) [[^99mTc]Tc-BQ0411], the Kd on PSMA was 0.604 nM.
Still for that read-out and setting: next, `CC(=O)N[C@@H](CCCCNC(=O)C[N]1C(=O)C[N]2C(=O)C[N]3C(=O)C[S][TcH]132=[O])C(=O)NCCCCCCCC(=O)N[C@@H](Cc1ccc(O)cc1)C(=O)N[C@@H](Cc1ccc2ccccc2c1)C(=O)NCCCC[C@H](NC(=O)N[C@@H](CCC(=O)O)C(=O)O)C(=O)O` [[^99mTc]Tc-BQ0412]: 0.44 nM.
Regarding `CC(=O)N[C@@H](CCCCNC(=O)CNC(=O)C(CCC(=O)O)[N]1C(=O)C(CCC(=O)O)[N]2C(=O)C(CCC(=O)O)[N]3C(=O)C[S][99Tc-]312=[O])C(=O)NCCCCCCCC(=O)N[C@@H](Cc1ccc(O)cc1)C(=O)N[C@@H](Cc1ccc2ccccc2c1)C(=O)NCCCC[C@H](NC(=O)N[C@@H](CCC(=O)O)C(=O)O)C(=O)O` (stereo partly drawn) [[^99mTc]Tc-BQ0413], in data set [2] (5 nmol/mouse iv), the activity in carcass is on record as 1.7 ± 0.3 %IA/sample, the “activity in intestines with content” value came out at 1.7 ± 0.2 %IA/sample, the uptake in blood is recorded as 0.17 ± 0.04 %IA/g and the uptake in bone was found to be 0.2 ± 0.1 %IA/g. In data set [2] (5 nmol/mouse iv), this molecule returned an uptake in kidney of 9 ± 2 %IA/g, an uptake in liver of 0.3 ± 0.1 %IA/g, an uptake in lung of 0.3 ± 0.1 %IA/g and an uptake in muscle of 0.06 ± 0.02 %IA/g. Besides, in data set [2] (5 nmol/mouse iv), the uptake in pancreas amounted to 0.13 ± 0.02 %IA/g, the “uptake in salivary glands” value was determined as 0.5 ± 0.1 %IA/g, the “uptake in small intestine” value came to 0.2 ± 0.1 %IA/g and the uptake in spleen is 0.9 ± 0.5 %IA/g. In data set [2] (5 nmol/mouse iv), this molecule yielded an uptake in stomach of 0.6 ± 0.2 %IA/g and an uptake in tumor of 17 ± 3 %IA/g. Further, in data set [2] (5 nmol/mouse), the tumor-to-blood ratio was 94 ± 3, the tumor-to-bone ratio is given as 114 ± 29, the tumor-to-liver ratio was determined as 48 ± 5 and the tumor-to-lung ratio amounted to 52 ± 8. In addition, in data set [2] (5 nmol/mouse), the tumor-to-muscle ratio is given as 284 ± 19, the tumor-to-pancreas ratio is 137 ± 10, the tumor-to-salivary ratio came to 31 ± 3 and the tumor-to-small intestine ratio was 126 ± 57. Moreover, in data set [2] (5 nmol/mouse), the tumor-to-spleen ratio came to 16 ± 4 and the tumor-to-stomach ratio is given as 24 ± 2. Moreover, in data set [3] (3 h pi), the activity in carcass amounted to 9 ± 1 %IA/sample, the “activity in intestines with content” value is reported as 3.8 ± 0.4 %IA/sample, the uptake in blood is on record as 0.5 ± 0.1 %IA/g and the uptake in kidney came out at 242 ± 43 %IA/g. Moreover, in data set [3] (3 h pi), the uptake in liver came to 0.7 ± 0.1 %IA/g, the uptake in lung amounted to 1.0 ± 0.3 %IA/g, the “uptake in salivary glands” value was determined as 3.0 ± 0.1 %IA/g and the uptake in spleen is 1.2 ± 0.3 %IA/g. The molecule further returned an uptake in stomach in data set [3] (3 h pi) of 3.1 ± 0.5 %IA/g. Moreover, in data set [3] (24 h pi), the activity in carcass was found to be 1.4 ± 0.2 %IA/sample, the “activity in intestines with content” value is recorded as 0.5 ± 0.2 %IA/sample, the uptake in blood was 0.05 ± 0.01 %IA/g and the uptake in kidney came to 56 ± 14 %IA/g. In data set [3] (24 h pi), the uptake in liver is given as 0.21 ± 0.03 %IA/g, the uptake in lung is on record as 0.18 ± 0.03 %IA/g, the “uptake in salivary glands” value was 0.30 ± 0.01 %IA/g and the uptake in spleen worked out at 0.3 ± 0.2 %IA/g. This molecule gave an uptake in stomach in data set [3] (24 h pi) of 1.0 ± 0.5 %IA/g. Also, the “washout of activity from kidneys” value in data set [3] (24 h pi compared to 3 h pi) was found to be 77%. Moreover, at PSMA, the ka1 came out at 33000 M⁻¹ s⁻¹, the ka2 worked out at 2.9e+08 M⁻¹ s⁻¹, the kd1 came out at 2.9e-06 s⁻¹ and the kd2 turned out to be 2.3e-09 s⁻¹. Further, the “logD (octanol–water distribution coefficient)” value in data set [4] is listed as −2.5 ± 0.1.
